According to US10105437B2, “Epitopes related to coeliac disease” (BTG International Limited, priority 2004, dated 2018):
Where no end group is shown, it is not given here.

test system: PBMC from HLA-DQ2+ coeliac subjects; assay: Interferon gamma ELISPOT, secalin 20mer first round library after rye challenge; assay type: cell-based, human; conditions: 20mers pre-treated with tTG; day 6 PBMC; 14 subjects
Description: Peptides were initially dissolved in aqueous acetonitrile (50%). Peptides in aqueous acetonitrile were transferred to sterile 96-well plates and diluted in sterile PBS with 1 mM calcium (250 mcg/ml) and then incubated with tTG (25 mcg/ml) (Sigma T5398) for 6 h 37° C. and then stored frozen (−20° C.) until use.
(§1) IFNγ ELISpot assays (Mabtech, Sweden) were performed in 96-well plates (MAIP S-45, Millipore) in which each well contained 25 mcl of peptide solution and 100 mcl of PBMC (2-8×10^5/well) in RPMI containing 10% heat inactivated human AB serum. After development and drying, IFNγ ELISpot plates were assessed using the MAIP automated ELISpot plate counter. Data was then analysed according to a novel algorithm (Expectation Maximization: EM) to define and quantify interferon-gamma responses to 9mer sequences contained within the peptide library (see FIG. 3 and below). 9mer peptides were then rationalised according to an algorithm that assumes redundancy in T-cell recognition, the “IterativeCluster” algorithm (see FIG. 4 and below), by allowing groups of amino acids with similar chemical properties at any one position in the 9mer, or for glutamate to replace glutamine at any position (assuming deamidation may have occurred).
Secalin and hordein 20mer first round peptide libraries were assessed 3 days after completing rye (bread, 100 g/d for 3 days) or barley (boiled, 100 g/d for 3 days) challenge (“day 6” PBMC interferon gamma ELISPOT responses). Although iterative analysis using 2nd and 3rd round peptide libraries to define epitopes has not yet been performed, the 20mers pre-treated with tTG found to induce “potent” responses shared substantial structural similarity to the bioactive peptides identified after wheat challenge. […] The dominant (>70% maximal response) 20mer after rye challenge was usually […] (SEQ ID NO: 1769) (8/14 subjects), or occasionally […] (SEQ ID NO: 1770) (4/14), […] (SEQ ID NO: 1771) (1/14), […] (SEQ ID NO: 1772) (1/14) and/or […] (SEQ ID NO: 1773) (1/14). Additional peptides noted for greater than 40% maximal response in at least 1 subject include: […]

| Substance | subjects in whom 20mer was dominant (>70% maximal response) after rye challenge |
| --- | --- |
| QQPQQLFPQTQQSSPQQPQQ (Description of Artificial Sequence: Synthetic gluten peptide) [rye secalin 20mer] | 1/14 |
| QEQREGVQILLPQSHQQLVG (Description of Artificial Sequence: Synthetic gluten peptide) [rye secalin 20mer] | 1/14 |
| PQTQQPQQPFPQPQQPQQLF (Description of Artificial Sequence: Synthetic gluten peptide) [rye secalin 20mer] | 1/14 |
| QPFPQPQQPTPIQPQQPFPQ (Description of Artificial Sequence: Synthetic gluten peptide) [rye secalin 20mer] | 4/14 |

same assay, conditions: after rye challenge; 14 subjects

| Substance | number of subjects with > 70% maximal response | subjects with greater than 40% maximal response |
| --- | --- | --- |
| SIPQPQQPFPQPQQPFPQSQ (Description of Artificial Sequence: Synthetic gluten peptide) [rye secalin 20mer] | 1 | 4/14 |
| FPLQPQQPFPQQPEQIISQQ (Description of Artificial Sequence: Synthetic gluten peptide) [rye secalin 20mer] | 1 | 5/14 |
| VGPSGQVSWPQQQPLPQPQQ (Description of Artificial Sequence: Synthetic gluten peptide) [rye secalin 20mer] | 2 | 2/14 |
| FPQQPQQPFPQPQQQLPLQP (Description of Artificial Sequence: Synthetic gluten peptide) [rye secalin 20mer] | 2 | 3/14 |
| NMQVGPSGQVEWPQQQPLPQ (Description of Artificial Sequence: Synthetic gluten peptide) [rye secalin 20mer] | 1 | 2/14 |
| PQQPQRPFAQQPEQIISQQP (Description of Artificial Sequence: Synthetic gluten peptide) [rye secalin 20mer] | 1 | 3/14 |
| QQLPLQPQQPFPQPQQPIPQ (Description of Artificial Sequence: Synthetic gluten peptide) [rye secalin 20mer] | 2 | 6/14 |
| QTQQSIPQPQQPFPQPQQPF (Description of Artificial Sequence: Synthetic gluten peptide) [rye secalin 20mer] | 1 | 3/14 |

test system: PBMC from HLA-DQ2+ coeliac subjects; assay: Interferon gamma ELISPOT, third round wheat peptide library; assay type: cell-based, human; conditions: following deamidation by tTG; 14 subjects; wheat challenge
Description: as §1
The third round peptide library consisted of 74 peptides based upon structurally distinct sequences in the second round library found to induce at least 10% of the maximal response to any peptide in any subject. These peptides corresponded to wild-type (non-deamidated) sequences virtually identical to those used in the second round library. The distinct feature of this library was that it consisted of peptides with purity verified by HPLC as >80%, and with sequences confirmed by mass spectroscopy.
Interferon gamma ELSIPOT responses to the 3rd round library peptides following deamidation by tTG were compared in 14 subjects. Once again, sequences including the PQPQLPY motif (SEQ ID NO: 1937) were “dominant” in 9/14 subjects. However PFPQPQQPFPW (SEQ ID NO: 1894) stimulated >70% of maximal response in 1/14 subjects, PFPQQPQQPFPQ (SEQ ID NO: 1895) in 1/14, PQPFLPQLPYPQP (SEQ ID NO: 1896) in 1/14, QPFPQPQQPQQP (SEQ ID NO: 1897) in 4/14 (including 3 subjects in whom PQPQLPY peptides (SEQ ID NO: 1937) were not potent epitopes) SGQGVSQSQQQSQQQ (SEQ ID NO: 1898) in 2/14 (including one in which PQPQLPY peptides (SEQ ID NO: 1937) were not potent), QYEVIRSLVLRTLPNM (SEQ ID NO: 1899) and GLARSQMLQQSICHVG (SEQ ID NO: 1900) each in one (the same) subject in whom PQPQLPY peptides (SEQ ID NO: 1937) were not potent epitopes, RTTTSVPFGVGTGVGA (SEQ ID NO: 1901) in 1/14 subjects and AIHTVIHSIIMQQEQQ (SEQ ID NO: 1902) in 1/14 subjects.

| Substance | subjects in whom peptide stimulated >70% of maximal response (dominant) |
| --- | --- |
| QPFPQPQQPQQP (Description of Artificial Sequence: Synthetic gluten peptide) | 4/14 |
| GLARSQMLQQSICHVG (Description of Artificial Sequence: Synthetic gluten peptide) | one |
| PFPQPQQPFPW (Description of Artificial Sequence: Synthetic gluten peptide) | 1/14 |
| QYEVIRSLVLRTLPNM (Description of Artificial Sequence: Synthetic gluten peptide) | one |
| RTTTSVPFGVGTGVGA (Description of Artificial Sequence: Synthetic gluten peptide) | 1/14 |
| AIHTVIHSIIMQQEQQ (Description of Artificial Sequence: Synthetic gluten peptide) | 1/14 |
| PQPFLPQLPYPQP (Description of Artificial Sequence: Synthetic gluten peptide) | 1/14 |
| SGQGVSQSQQQSQQQ (Description of Artificial Sequence: Synthetic gluten peptide) | 2/14 |
| PFPQQPQQPFPQ (Description of Artificial Sequence: Synthetic gluten peptide) | 1/14 |

test system: PBMC from HLA DQ8+DQ2- CD subjects; assay: Interferon gamma ELISPOT, second round gliadin library in HLA DQ8 subjects; assay type: cell-based, human; conditions: not given
Source text: PBMC from two subjects initially challenged were used to screen the first round “Melbourne” wheat gliadin 20mer library. The 20mer sequences identified using PBMC from these two HLA DQ8 CD subjects were dissected further by screening, in five HLA DQ8+DQ2− CD subjects including the two original subjects, a second round library based on reactive 20mers in the 1st round library. The 2nd round library consisted of screening grade overlapping 16mers, and 13mers predicted to correspond to tTG-mediated deamidation products of epitopes with the potential for deamidation of glutamine at position 1 and/or position 9 (consistent with the HLA DQ8 peptide binding motif). In addition, the 1400 glutenin (HMW and LMW) tTG-pretreated 20mers in the “Melbourne” wheat gluten library were also screened in these five subjects.

| Substance | effect of deamidation of specific glutamine residues on ELISPOT responses |
| --- | --- |
| (QE)QPQQPFP(QE): HLA DQ8 gliadin epitope motif, Q or E at marked positions (XQPQQPFPX; not fully specified; printed as (QE)QPQQPFP(QE)) | enhanced or permissive to specific glutamine residues being deamidated |
| (QE)QPFP(QE)QP(QE): HLA DQ8 gliadin epitope motif, Q or E at marked positions (XQPFPXQPX; not fully specified; printed as (QE)QPFP(QE)QP(QE)) | enhanced or permissive to specific glutamine residues being deamidated |
| (QE)GSFQPSQ(QE): previously published HLA DQ8 epitope, van der Wal 1998 (XGSFQPSQX; not fully specified; printed as (QE)GSFQPSQ(QE)) [reference compound] | enhanced or permissive to specific glutamine residues being deamidated |
| (QE)QPTPIQP(QE): HLA DQ8 gliadin epitope motif, Q or E at marked positions (XQPTPIQPX; not fully specified; printed as (QE)QPTPIQP(QE)) | enhanced or permissive to specific glutamine residues being deamidated |
| (QE)QPFPLQP(QE): HLA DQ8 gliadin epitope motif, Q or E at marked positions (XQPFPLQPX; not fully specified; printed as (QE)QPFPLQP(QE)) | enhanced or permissive to specific glutamine residues being deamidated |
| (QE)QPIPVQP(QE): HLA DQ8 gliadin epitope motif, Q or E at marked positions (XQPIPVQPX; not fully specified; printed as (QE)QPIPVQP(QE)) | enhanced or permissive to specific glutamine residues being deamidated |

same assay, conditions: VYIPPYCTIAPFGIFG and/or AMCNVYIPPYCAMAPF; five subjects

| Substance | subjects with dominant responses to one or both of these peptides |
| --- | --- |
| AMCNVYIPPYCAMAPF (Description of Artificial Sequence: Synthetic gluten peptide) [gliadin 16mer, HLA DQ8] | 4/5 |
| VYIPPYCTIAPFGIFG (Description of Artificial Sequence: Synthetic gluten peptide) [gliadin 16mer, HLA DQ8] | 4/5 |

same assay, conditions: five subjects; wheat gluten challenge

| Substance | subjects with >70% response to maximal gliadin 16mer (dominant) |
| --- | --- |
| AMCNVYIPPYCAMAPF (Description of Artificial Sequence: Synthetic gluten peptide) [gliadin 16mer, HLA DQ8] | 3/5 |
| VYIPPYCTIAPFGIFG (Description of Artificial Sequence: Synthetic gluten peptide) [gliadin 16mer, HLA DQ8] | 3/5 |
